Experimental data taken from patent US10781202B2, “Azetidinyloxyphenylpyrrolidine compounds” (Eli Lilly and Company, priority 2014, dated 2020).

Biological target: PDE4B (Homo sapiens (Human), UniProt Q07343)
Experiment: PDE4 Inhibition In Vitro Assay (PDE4B)
Format: biochemical
Settings: human recombinant PDE4B; 15 minutes at 30° C.; 2.5% DMSO
Description: PDE4 Inhibition In Vitro Assay
The phosphodiesterase assays are performed essentially according to the method described in Loughney, K., et al., J. Biol. Chem., 271, pp. 796-806 (1996). PDE4A, PDE4B, PDE4C, PDE4D, and PDE5 human recombinant proteins are expressed and purified from Saccharomyes cerevisiae that lack endogenous PDEs. The phosphodiesterase enzymes are diluted on ice with enzyme dilution buffer (25 mM Tris, pH 7.5, 0.1 mM DTT, 5.0 mM MgCl2, 100 mM NaCl, 5 μM ZnSO4, 100 μg/mL BSA) to give approximately 20%-40% hydrolysis of cyclic nucleotide monophosphate (cNMP) in the absence of inhibitor.
The stock solution of test compounds are diluted on the Beckman BioMek™ 1000 workstation to span a concentration range of 4.5 log units in 0.5 log increments. The DMSO concentration in the final test system is 2.5% for all PDE enzymes. The final test compound concentration tested ranged from 0.03 nM to 1 μM.
The assay is performed in a 96-well microtiter plate format on a Beckman BioMek™ 1000 robotic station. Each row of the plate represents a 10-point dose response curve containing blank (no enzyme), non-inhibited control, and inhibitor dilutions spanning 4.5 log units in concentration in 0.5 log increments. Assay stock solutions are loaded into the Biomek™ reservoirs (water, inhibitor diluent [2.5% or 10% DMSO], 5× PDE assay buffer, substrate, inhibitor solutions, enzyme solutions, snake venom nucleotidase, and charcoal suspension). The reaction is initiated with enzyme, and incubated for 15 minutes at 30° C. An excess of Crotalus atrox snake venom nucleotidase (5 μL/well) is then added and the mixture is incubated for an additional 3 minutes. The reaction is terminated by the addition of 200 μL of activated charcoal suspension, after which the plate is centrifuged for 5 minutes at 750×g. A transfer program is run in which 200 μL of supernatant is removed and placed into a new plate. The amount of radioactivity released as phosphate is determined in a Wallac MicroBeta Plate™ counter.
The reduced data at each concentration of inhibitor is analyzed using a four-, three- or two-parameter logistic dose response model to provide an IC50 value.

Chain of PDE4B (Q07343 whole entry): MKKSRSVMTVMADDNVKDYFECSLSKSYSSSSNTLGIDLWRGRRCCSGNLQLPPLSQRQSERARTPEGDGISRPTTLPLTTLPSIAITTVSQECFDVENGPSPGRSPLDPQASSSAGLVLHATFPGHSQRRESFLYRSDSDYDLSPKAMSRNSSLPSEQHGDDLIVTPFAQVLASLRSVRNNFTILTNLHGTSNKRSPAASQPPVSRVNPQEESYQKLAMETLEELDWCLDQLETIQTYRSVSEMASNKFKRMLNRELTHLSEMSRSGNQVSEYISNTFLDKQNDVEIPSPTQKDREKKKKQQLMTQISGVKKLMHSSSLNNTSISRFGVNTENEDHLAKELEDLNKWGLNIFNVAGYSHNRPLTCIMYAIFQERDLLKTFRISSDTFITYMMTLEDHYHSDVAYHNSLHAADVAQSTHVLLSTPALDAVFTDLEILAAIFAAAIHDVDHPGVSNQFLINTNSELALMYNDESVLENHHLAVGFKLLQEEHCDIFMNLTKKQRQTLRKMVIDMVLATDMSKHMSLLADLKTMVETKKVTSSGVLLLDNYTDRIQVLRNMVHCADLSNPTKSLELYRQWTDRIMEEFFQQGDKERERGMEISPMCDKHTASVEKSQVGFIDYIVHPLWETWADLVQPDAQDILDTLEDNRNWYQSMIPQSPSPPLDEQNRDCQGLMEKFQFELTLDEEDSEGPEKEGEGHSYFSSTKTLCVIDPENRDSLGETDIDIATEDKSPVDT

| SMILES | IC50 |
| --- | --- |
| COc1ccc([C@@H]2CN(C(=O)[C@@H](O)CO)C[C@@]2(C)[C@@H](C)O)cc1OC1CN(c2cc(C#N)ccn2)C1 [Example 7, (2S)-3-[(3S,4S)-3-[(1R)-1-hydroxyethyl]-4-(4-methoxy-3-{[1-(4-cyanopyridin-2-yl)azetidin-3-yl]oxy}phenyl)-3-methylpyrrolidin-1-yl]-3-oxopropane-1,2-diol] | 440 pM |
| COc1ccc([C@@H]2CN(C(=O)[C@@H](O)CO)C[C@@]2(C)[C@@H](C)O)cc1OC1CN(c2ccc(C#N)cn2)C1 [Example 6, (2S)-3-[(3S,4S)-3-[(1R)-1-hydroxyethyl]-4-(4-methoxy-3-{[1-(5-cyanopyridin-2-yl)azetidin-3-yl]oxy}phenyl)-3-methylpyrrolidin-1-yl]-3-oxopropane-1,2-diol] | 310 pM |
| COc1ccc([C@@H]2CN(C(=O)[C@@H](O)CO)C[C@@]2(C)[C@@H](C)O)cc1OC1CN(c2ccncc2)C1 [Example 3, (2S)-3-[(3S,4S)-3-[(1R)-1-hydroxyethyl]-4-{4-methoxy-3-[(1-pyridin-4-ylazetidin-3-yl)oxy]phenyl}-3-methylpyrrolidin-1-yl]-3-oxopropane-1,2-diol] | 7700 pM |
| COc1ccc([C@@H]2CN(C(=O)[C@@H](O)CO)C[C@@]2(C)[C@@H](C)O)cc1OC1CN(c2ncccn2)C1 [Example 5, (2S)-3-[(3S,4S)-3-[(1R)-1-hydroxyethyl]-4-{4-methoxy-3-[(1-pyrimidin-2-ylazetidin-3-yl)oxy]phenyl}-3-methylpyrroldiin-1-yl]-3-oxopropane-1,2-diol] | 1500 pM |
| COc1ccc([C@@H]2CN(C(=O)[C@@H](O)CO)C[C@@]2(C)[C@@H](C)O)cc1OC1CN(c2ccc(Cl)cn2)C1 [Example 12, (2S)-3-[(3S,4S)-3-[(1R)-1-hdyroxyethyl]-4-(4-methoxy-3-{[1-(5-chloropyridin-2-yl)azetidin-3-yl]oxy}phenyl)-3-methylpyrrolidin-1-yl]-3-oxopropane-1,2-diol] | 160 pM |
| [2H]C([2H])([2H])c1ccc(N2CC(Oc3cc([C@@H]4CN(C(=O)[C@@H](O)CO)C[C@@]4(C)[C@@H](C)O)ccc3OC)C2)nc1 [Example 14, (S)-2,3-dihydroxy-1-((3S,4S)-3-((R)-1-hydroxyethyl)-4-(4-methoxy-3-((1-(5-(methyl-D3)pyridin-2-yl)azetidin-3-yl)oxy)phenyl)-3-methylpyrrolidin-1-yl)propan-1-one] | 130 pM |
| COc1ccc([C@@H]2CN(C(=O)[C@@H](O)CO)C[C@@]2(C)[C@@H](C)O)cc1OC1CN(c2ccncn2)C1 [Example 13, (2S)-3-[(3S,4S)-3-[(1R)-1-hydroxyethyl]-4-(4-methoxy-3-{[1-(pyrimidin-4-yl)azetidin-3-yl]oxy}phenyl)-3-methylpyrrolidin-1-yl]-3-oxopropane-1,2-diol] | 3800 pM |
| COc1ccc([C@@H]2CN(C(=O)[C@@H](O)CO)C[C@@]2(C)[C@@H](C)O)cc1OC1CN(c2cccnc2)C1 [Example 2, (2S)-3-[(3S,4S)-3-[(1R)-1-hydroxyethyl]-4-{4-methoxy-3-[(1-pyridin-3-ylazetidin-3-yl)oxy]phenyl}-3-methylpyrrolidin-1-yl]-3-oxopropane-1,2-diol] | 1800 pM |
| COc1ccc([C@@H]2CN(C(=O)[C@@H](O)CO)C[C@@]2(C)[C@@H](C)O)cc1OC1CN(c2cc(Cl)ncn2)C1 [Example 8, (2S)-3-[(3S,4)S-3-[(1R)-1-hydroxyethyl]-4-{4-methoxy-3-[(1-(6-chloropyrimidin-4-yl)azetidin-3-yl)oxy]phenyl}-3-methylpyrrolidin-1-yl]-3-oxopropane-1,2-diol] | 530 pM |

System: chronic cyclophosphamide (CYP)-induced overactive bladder mouse model
Experiment: Overactive Bladder In Vivo Model
Settings: tadalafil 10 mg/kg orally daily; CYP-induced OAB female C57/B16 mice; day 8, 4 hour urine collection
Description: Overactive Bladder In Vivo Model
The in vivo effect of PDE4 inhibitors on OAB is studied with a chronic cyclophosphamide (CYP)-induced overactive bladder mouse model adapted from Boudes et al., Neurourol. Urodynam. 2011. In a typical study, female C57/B16 mice, approximately 20 grams in body weight (Harlan Laboratories, Inc., Indianapolis, Ind.) are used. Mice are randomized by body weight into groups one day before the start of the study. Mice are individually housed and maintained on a 12 hour light/dark cycle at 22° C. with ad lib access to food (TD 2014 with 0.72% Ca and 0.61% P, 990 IU/g D3, Teklad™, Madison, Wis.) and water Animals receive cyclophosphamide (dissolved in physiological saline) i.p. administration at 100 mg/kg on days 1, 3, 5, and 7 to chronically induce OAB. The vehicle control group received daily vehicle (HEC 1%/Tween 80 0.25%/Antifoam 0.05%) administered orally. All other groups are administered orally tadalafil at 10 mg/kg in combination with 0.1, 1.0, or 10.0 mg/kg of test compound daily at a volume of 200 μl/mouse. On day 8, mice are housed in urine collection chambers with a filter paper placed underneath chamber. Prior to urine collection, gavages of 1 ml water are given to each mouse. […] Voiding frequency and volume/void are calculated using Image J software (NIH). Data are statistically analyzed with JMP8® software (Cary, N.C.). […]

| SMILES | urinary frequency | volume per void |
| --- | --- | --- |
| CN1CC(=O)N2[C@H](c3ccc4c(c3)OCO4)c3[nH]c4ccccc4c3C[C@@H]2C1=O [tadalafil] | no significant activity | no significant activity |
